Reference: US6358885B1, “Substituted phenylheterocyclic herbicides” (Mississippi State University, priority 1992, dated 2002)

What was measured:
[1] = test system: bedstraw; test: Test B preemergence/postemergence greenhouse plant response rating 0 to 10; format: in vivo, Galium aparine; conditions: for Plant response rating, Bedstraw: 0 to 10 scale
Outline: (§1)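 Test chemicals, dissolved in a non-phytotoxic solvent, were applied to soil at planting and, at the same time, over foliage of seedlings at the one to four leaf stage.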

[2] = test system: chickweed; test: as above; format: in vivo, Stellaria media; conditions: for Plant response rating, Chickweed: 0 to 10 scale
Outline: as §1

[3] = test system: corn; test: as above; format: in vivo, Zea mays; conditions: for Plant response rating, Corn: 0 to 10 scale
Outline: as §1

[4] = test system: sugar beet; test: as above; format: in vivo, Beta vulgaris; conditions: for Plant response rating, Sugar beet: 0 to 10 scale
Outline: as §1

[5] = test system: wild buckwheat; test: as above; format: in vivo, Polygonum convolvulus; conditions: for Plant response rating, Wild buckwheat: 0 to 10 scale
Outline: as §1

[6] = test system: bedstraw; test: Test C preemergence/postemergence greenhouse plant response rating 0 to 100; format: in vivo, Galium aparine; conditions: for Plant response rating, Bedstraw: 125 g/ha, 0 to 100 scale
Outline: (§2)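 Compounds in non-phytotoxic solvent went onto sandy loam before emergence (seeded one day earlier) or onto plants at the one-to-four leaf stage. Duck salad was treated via flood water (~2.5 cm, maintained) over silt loam.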

[7] = test system: corn; test: as above; format: in vivo, Zea mays; conditions: for Plant response rating, Corn: 125 g/ha, 0 to 100 scale
Outline: as §2

[8] = test system: cotton; test: as above; format: in vivo, Gossypium hirsutum; conditions: for Plant response rating, Cotton: 125 g/ha, 0 to 100 scale
Outline: as §2

[9] = test system: downy brome; test: as above; format: in vivo, Bromus tectorum; conditions: for Plant response rating Downy Brome: 125 g/ha, 0 to 100 scale
Outline: as §2

[10] = test system: giant foxtail; test: as above; format: in vivo, Setaria faberii; conditions: for Plant response rating, Giant foxtail: 125 g/ha, 0 to 100 scale
Outline: as §2

[11] = test system: morningglory; test: as above; format: in vivo, Ipomoea hederacea; conditions: for Plant response rating, Morningglory: 125 g/ha, 0 to 100 scale
Outline: as §2

[12] = test system: sorghum; test: as above; format: in vivo, Sorghum bicolor; conditions: for Plant response rating, Sorghum: 125 g/ha, 0 to 100 scale
Outline: as §2

[13] = test system: velvetleaf; test: as above; format: in vivo, Abutilon theophrasti; conditions: for Plant response rating, Velvetleaf: 125 g/ha, 0 to 100 scale
Outline: as §2

[14] = test system: wheat; test: as above; format: in vivo, Triticum aestivum; conditions: for Plant response rating, Wheat: 125 g/ha, 0 to 100 scale
Outline: as §2

[15] = test system: wild oat; test: as above; format: in vivo, Avena fatua; conditions: for Plant response rating, Wild oat: 125 g/ha, 0 to 100 scale
Outline: as §2

[16] = test system: duck salad; test: Test C flood test plant response rating 0 to 100; format: in vivo, Heteranthera limosa
Outline: as §2

[17] = test system: barnyardgrass; test: Test C flood test plant response rating 0 to 100; format: in vivo, Echinochloa crus-galli
Outline: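 Compounds in non-phytotoxic solvent applied preemergence to sandy loam one day after planting, postemergence at the 1–4 leaf stage, or to ~2.5 cm floodwater over silt loam.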

[18] = POSTEMERGENCE section, flood test, Rate 2 g/ha
[19] = Rate 8 g/ha, under POSTEMERGENCE head (flood test species)
[20] = Rate 31 g/ha, under POSTEMERGENCE head (flood test species)
[21] = flood test species listed under POSTEMERGENCE, 125 g/ha, 0 to 100 scale

## CCOCOc1cc(-c2nn3c(c2Cl)CCCC3)c(F)cc1Cl [Compound 59]
[1]; POSTEMERGENCE, Rate 50 g/ha
  Plant response rating, Bedstraw: 10
[1]; PREEMERGENCE, Rate 50 g/ha
  Plant response rating, Bedstraw: 8
[1]; PREEMERGENCE, Rate 200 g/ha
  Plant response rating (0 to 10 scale), Bedstraw: 10
[1]; Rate 200 g/ha, POSTEMERGENCE
  Plant response rating, Bedstraw: 8
[2]; POSTEMERGENCE, Rate 50 g/ha
  Plant response rating, Chickweed: 6
[2]; PREEMERGENCE, Rate 50 g/ha
  Plant response rating, Chickweed: 4
[2]; PREEMERGENCE, Rate 200 g/ha
  Plant response rating (0 to 10 scale), Chickweed: 9
[2]; Rate 200 g/ha, POSTEMERGENCE
  Plant response rating, Chickweed: 8
[3]; POSTEMERGENCE, Rate 50 g/ha
  Plant response rating, Corn: 4
[3]; PREEMERGENCE, Rate 50 g/ha
  Plant response rating, Corn: 1
[3]; PREEMERGENCE, Rate 200 g/ha
  Plant response rating (0 to 10 scale), Corn: 2
[3]; Rate 200 g/ha, POSTEMERGENCE
  Plant response rating, Corn: 5
[4]; POSTEMERGENCE, Rate 50 g/ha
  Plant response rating, Sugar beet: 10
[4]; PREEMERGENCE, Rate 50 g/ha
  Plant response rating, Sugar beet: 9
[4]; PREEMERGENCE, Rate 200 g/ha
  Plant response rating (0 to 10 scale), Sugar beet: 10
[4]; Rate 200 g/ha, POSTEMERGENCE
  Plant response rating, Sugar beet: 10
[5]; POSTEMERGENCE, Rate 50 g/ha
  Plant response rating, Wild buckwheat: 10
[5]; PREEMERGENCE, Rate 50 g/ha
  Plant response rating, Wild buckwheat: 10
[5]; PREEMERGENCE, Rate 200 g/ha
  Plant response rating (0 to 10 scale), Wild buckwheat: 10
[5]; Rate 200 g/ha, POSTEMERGENCE
  Plant response rating, Wild buckwheat: 10
[6]; POSTEMERGENCE
  Plant response rating, Bedstraw: 100
[6]; POSTEMERGENCE, Rate 2 g/ha
  Plant response rating (0 to 100), Bedstraw: 50
[6]; PREEMERGENCE
  Plant response rating, Bedstraw: 70
[6]; PREEMERGENCE, Rate 2 g/ha
  Plant response rating (0 to 100), Bedstraw: 0
[6]; Rate 8 g/ha, POSTEMERGENCE
  Plant response rating (0 to 100), Bedstraw: 75
[6]; Rate 8 g/ha, PREEMERGENCE
  Plant response rating (0 to 100), Bedstraw: 0
[6]; Rate 31 g/ha, POSTEMERGENCE
  Plant response rating (0 to 100), Bedstraw: 100
[6]; Rate 31 g/ha, PREEMERGENCE
  Plant response rating (0 to 100), Bedstraw: 50
[7]; POSTEMERGENCE
  Plant response rating, Corn: 65
[7]; POSTEMERGENCE, Rate 2 g/ha
  Plant response rating (0 to 100), Corn: 30
[7]; PREEMERGENCE
  Plant response rating, Corn: 0
[7]; PREEMERGENCE, Rate 2 g/ha
  Plant response rating (0 to 100), Corn: 0
[7]; Rate 8 g/ha, POSTEMERGENCE
  Plant response rating (0 to 100), Corn: 40
[7]; Rate 8 g/ha, PREEMERGENCE
  Plant response rating (0 to 100), Corn: 0
[7]; Rate 31 g/ha, POSTEMERGENCE
  Plant response rating (0 to 100), Corn: 50
[7]; Rate 31 g/ha, PREEMERGENCE
  Plant response rating (0 to 100), Corn: 0
[8]; POSTEMERGENCE
  Plant response rating, Cotton: 100
[8]; POSTEMERGENCE, Rate 2 g/ha
  Plant response rating (0 to 100), Cotton: 95
[8]; PREEMERGENCE
  Plant response rating, Cotton: 50
[8]; PREEMERGENCE, Rate 2 g/ha
  Plant response rating (0 to 100), Cotton: 0
[8]; Rate 8 g/ha, POSTEMERGENCE
  Plant response rating (0 to 100), Cotton: 100
[8]; Rate 8 g/ha, PREEMERGENCE
  Plant response rating (0 to 100), Cotton: 0
[8]; Rate 31 g/ha, POSTEMERGENCE
  Plant response rating (0 to 100), Cotton: 100
[8]; Rate 31 g/ha, PREEMERGENCE
  Plant response rating (0 to 100), Cotton: 10
[9]; POSTEMERGENCE
  Plant response rating Downy Brome: 90
[9]; POSTEMERGENCE, Rate 2 g/ha
  Plant response rating (0 to 100), Downy Brome: 20
[9]; PREEMERGENCE
  Plant response rating Downy Brome: 60
[9]; PREEMERGENCE, Rate 2 g/ha
  Plant response rating (0 to 100), Downy Brome: 0
[9]; Rate 8 g/ha, POSTEMERGENCE
  Plant response rating (0 to 100), Downy Brome: 50
[9]; Rate 8 g/ha, PREEMERGENCE
  Plant response rating (0 to 100), Downy Brome: 0
[9]; Rate 31 g/ha, POSTEMERGENCE
  Plant response rating (0 to 100), Downy Brome: 70
[9]; Rate 31 g/ha, PREEMERGENCE
  Plant response rating (0 to 100), Downy Brome: 30
[10]; POSTEMERGENCE
  Plant response rating, Giant foxtail: 90
[10]; POSTEMERGENCE, Rate 2 g/ha
  Plant response rating (0 to 100), Giant foxtail: 20
[10]; PREEMERGENCE
  Plant response rating, Giant foxtail: 90
[10]; PREEMERGENCE, Rate 2 g/ha
  Plant response rating (0 to 100), Giant foxtail: 0
[10]; Rate 8 g/ha, POSTEMERGENCE
  Plant response rating (0 to 100), Giant foxtail: 40
[10]; Rate 8 g/ha, PREEMERGENCE
  Plant response rating (0 to 100), Giant foxtail: 10
[10]; Rate 31 g/ha, POSTEMERGENCE
  Plant response rating (0 to 100), Giant foxtail: 70
[10]; Rate 31 g/ha, PREEMERGENCE
  Plant response rating (0 to 100), Giant foxtail: 50
[11]; POSTEMERGENCE
  Plant response rating, Morningglory: 85
[11]; POSTEMERGENCE, Rate 2 g/ha
  Plant response rating (0 to 100), Morningglory: 70
[11]; PREEMERGENCE
  Plant response rating, Morningglory: 10
[11]; PREEMERGENCE, Rate 2 g/ha
  Plant response rating (0 to 100), Morningglory: 0
[11]; Rate 8 g/ha, POSTEMERGENCE
  Plant response rating (0 to 100), Morningglory: 70
[11]; Rate 8 g/ha, PREEMERGENCE
  Plant response rating (0 to 100), Morningglory: 0
[11]; Rate 31 g/ha, POSTEMERGENCE
  Plant response rating (0 to 100), Morningglory: 85
[11]; Rate 31 g/ha, PREEMERGENCE
  Plant response rating (0 to 100), Morningglory: 10
[12]; POSTEMERGENCE
  Plant response rating, Sorghum: 70
[12]; POSTEMERGENCE, Rate 2 g/ha
  Plant response rating (0 to 100), Sorghum: 20
[12]; PREEMERGENCE
  Plant response rating, Sorghum: 20
[12]; PREEMERGENCE, Rate 2 g/ha
  Plant response rating (0 to 100), Sorghum: 0
[12]; Rate 8 g/ha, POSTEMERGENCE
  Plant response rating (0 to 100), Sorghum: 40
[12]; Rate 8 g/ha, PREEMERGENCE
  Plant response rating (0 to 100), Sorghum: 0
[12]; Rate 31 g/ha, POSTEMERGENCE
  Plant response rating (0 to 100), Sorghum: 60
[12]; Rate 31 g/ha, PREEMERGENCE
  Plant response rating (0 to 100), Sorghum: 10
[13]; POSTEMERGENCE
  Plant response rating, Velvetleaf: 100
[13]; POSTEMERGENCE, Rate 2 g/ha
  Plant response rating (0 to 100), Velvetleaf: 50
[13]; PREEMERGENCE
  Plant response rating, Velvetleaf: 100
[13]; PREEMERGENCE, Rate 2 g/ha
  Plant response rating (0 to 100), Velvetleaf: 0
[13]; Rate 8 g/ha, POSTEMERGENCE
  Plant response rating (0 to 100), Velvetleaf: 70
[13]; Rate 8 g/ha, PREEMERGENCE
  Plant response rating (0 to 100), Velvetleaf: 40
[13]; Rate 31 g/ha, POSTEMERGENCE
  Plant response rating (0 to 100), Velvetleaf: 90
[13]; Rate 31 g/ha, PREEMERGENCE
  Plant response rating (0 to 100), Velvetleaf: 95
[14]; POSTEMERGENCE
  Plant response rating, Wheat: 70
[14]; POSTEMERGENCE, Rate 2 g/ha
  Plant response rating (0 to 100), Wheat: 10
[14]; PREEMERGENCE
  Plant response rating, Wheat: 10
[14]; PREEMERGENCE, Rate 2 g/ha
  Plant response rating (0 to 100), Wheat: 0
[14]; Rate 8 g/ha, POSTEMERGENCE
  Plant response rating (0 to 100), Wheat: 40
[14]; Rate 8 g/ha, PREEMERGENCE
  Plant response rating (0 to 100), Wheat: 0
[14]; Rate 31 g/ha, POSTEMERGENCE
  Plant response rating (0 to 100), Wheat: 60
[14]; Rate 31 g/ha, PREEMERGENCE
  Plant response rating (0 to 100), Wheat: 0
[15]; POSTEMERGENCE
  Plant response rating, Wild oat: 60
[15]; POSTEMERGENCE, Rate 2 g/ha
  Plant response rating (0 to 100), Wild oat: 10
[15]; PREEMERGENCE
  Plant response rating, Wild oat: 30
[15]; PREEMERGENCE, Rate 2 g/ha
  Plant response rating (0 to 100), Wild oat: 0
[15]; Rate 8 g/ha, POSTEMERGENCE
  Plant response rating (0 to 100), Wild oat: 30
[15]; Rate 8 g/ha, PREEMERGENCE
  Plant response rating (0 to 100), Wild oat: 0
[15]; Rate 31 g/ha, POSTEMERGENCE
  Plant response rating (0 to 100), Wild oat: 40
[15]; Rate 31 g/ha, PREEMERGENCE
  Plant response rating (0 to 100), Wild oat: 0
[16]; [18]
  Plant response rating (0 to 100), Duck salad: 0
[16]; [19]
  Plant response rating (0 to 100), Duck salad: 0
[16]; [20]
  Plant response rating (0 to 100), Duck salad: 40
[16]; [21]
  Plant response rating Duck salad: 80
[17]; [18]
  Plant response rating (0 to 100), Barnyardgrass 2: 0
[17]; [19]
  Plant response rating (0 to 100), Barnyardgrass 2: 90
[17]; [20]
  Plant response rating (0 to 100), Barnyardgrass 2: 100
[17]; [21]
  Plant response rating Barnyardgrass 2: 100
